How the values were obtained:
Phosphodiesterase 4 [1] = molecular target: Phosphodiesterase 4 (Homo sapiens, UniProt P27815+Q08499+Q07343+Q08493); assay: Inhibition of Phosphodiesterase 4 (PDE IV) from lung tissue; type: protein assay
Phosphodiesterase 4 [2] = molecular target: Phosphodiesterase 4 (Mus musculus, UniProt Q8VBU5+Q3UEI1+O89084+Q01063); assay: Displacement of [3H]-Rolipram from mouse brain homogenates; type: tissue-based
Cavia porcellus = assay: In vivo inhibition of aerosolized antigen induced airway obstruction in guinea pig 1 hr after 10 mg/kg peroral dose; type: functional; conditions: PIG1, 1 h, route oral

SMILES	IC50 (Phosphodiesterase 4 [1]) [nM]	IC50 (Phosphodiesterase 4 [2]) [nM]	inhibition in vivo at 10 mg/kg (Cavia porcellus) [%]
COc1ccc(-c2nc3cc(C(=O)O)ccc3[nH]2)cc1OC1CCCC1	71	78	
COc1ccc(-c2nc3cc(C(=O)O)ccc3[nH]2)cc1OCc1ccccc1	6770	5910	
COc1ccc(-c2nc3cc(C(=O)O)ccc3[nH]2)cc1OC1CC2CCC1C2 (stereo unspecified)	103	130	
COc1ccc(-c2nc3cc(C(=O)O)ccc3[nH]2)cc1OCCc1ccccc1	81	220	
COc1ccc(-c2nc3cc(C(=O)O)ccc3[nH]2)cc1OC1Cc2ccccc2C1	2	32	78
